ChEMBL document CHEMBL1201862, “PubChem BioAssay data set” (2004)
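Step 1: Grow cells in 96-well plates. Step 2: Expose to compound for 48 hours at 5 concentrations. Step 3: Interpolate endpoints linearly; if unreached, use highest concentration. GI50 marks 50% less growth.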 Activity calls are given as the source filed them. No stated cut-off is given here; in the data, active = GI50 up to about 1.1 µM and inactive = higher.

Key:
Assay in all cases: NCI anticancer screen, dose series, 48 h
786-0 = tested on: 786-0
A498 = tested on: A498
A549 = tested on: A549
ACHN = tested on: ACHN
BT-549 = tested on: BT-549
CAKI-1 = tested on: CAKI-1
CCRF-CEM = tested on: CCRF-CEM
COLO 205 = tested on: COLO 205
DU-145 = tested on: DU-145
EKVX = tested on: EKVX
HCC 2998 = tested on: HCC 2998
HCT-116 = tested on: HCT-116
HCT-15 = tested on: HCT-15
HL-60 = tested on: HL-60
HOP-62 = tested on: HOP-62
HOP-92 = tested on: HOP-92
HT-29 = tested on: HT-29
Hs-578T = tested on: Hs-578T
IGROV-1 = tested on: IGROV-1
K562 = tested on: K562
KM12 = tested on: KM12
LOX IMVI = tested on: LOX IMVI
M14 = tested on: M14
MCF7 = tested on: MCF7
MDA-MB-231 = tested on: MDA-MB-231
MDA-MB-435 = tested on: MDA-MB-435
MDA-N = tested on: MDA-N
MOLT-4 = tested on: MOLT-4
Malme-3M = tested on: Malme-3M
NCI-H226 = tested on: NCI-H226
NCI-H23 = tested on: NCI-H23
NCI-H460 = tested on: NCI-H460
NCI-H522 = tested on: NCI-H522
NCI/ADR-RES = tested on: NCI/ADR-RES
OVCAR-3 = tested on: OVCAR-3
OVCAR-4 = tested on: OVCAR-4
OVCAR-5 = tested on: OVCAR-5
OVCAR-8 = tested on: OVCAR-8
PC-3 = tested on: PC-3
RPMI-8226 = tested on: RPMI-8226
RXF 393 = tested on: RXF 393
SF-268 = tested on: SF-268
SF-295 = tested on: SF-295
SF-539 = tested on: SF-539
SK-MEL-28 = tested on: SK-MEL-28
SK-MEL-2 = tested on: SK-MEL-2
SK-MEL-5 = tested on: SK-MEL-5
SK-OV-3 = tested on: SK-OV-3
SN12C = tested on: SN12C
SNB-19 = tested on: SNB-19
SNB-75 = tested on: SNB-75
SR = tested on: SR
SW-620 = tested on: SW-620
T47D = tested on: T47D
TK-10 = tested on: TK-10
U-251 = tested on: U-251
UACC-257 = tested on: UACC-257
UACC-62 = tested on: UACC-62
UO-31 = tested on: UO-31
DLD-1 = tested on: DLD-1
DMS-114 = tested on: DMS-114
DMS-273 = tested on: DMS-273
LXFL 529 = tested on: LXFL 529
M19-MEL = tested on: M19-MEL
SNB-78 = tested on: SNB-78
XF498 = tested on: XF498

Structure (SMILES): COc1ccc(OC)c(CCc2cc(OC)ccc2OC)c1
- GI50 (786-0): 3.17 µM (inactive)
- GI50 (A498): 4.48 µM (inactive)
- GI50 (A549): 5.28 µM (inactive)
- GI50 (ACHN): > 6.93 µM (inactive)
- GI50 (BT-549): > 5.4 µM (inactive)
- GI50 (CAKI-1): 3.92 µM (inactive)
- GI50 (CCRF-CEM): 2.9 µM (inactive)
- GI50 (COLO 205): 1.29 µM (inactive)
- GI50 (DU-145): 5.19 µM (inactive)
- GI50 (EKVX): 7.53 µM (inactive)
- GI50 (HCC 2998): 3.79 µM (inactive)
- GI50 (HCT-116): 0.59 µM (active)
- GI50 (HCT-15): 0.34 µM
- GI50 (HL-60): 1.5 µM (inactive)
- GI50 (HOP-62): 3.73 µM (inactive)
- GI50 (HOP-92): > 10 µM (inactive)
- GI50 (HT-29): 1.06 µM (active)
- GI50 (Hs-578T): 2.69 µM (inactive)
- GI50 (IGROV-1): 1.69 µM (inactive)
- GI50 (K562): 0.912 µM (active)
- GI50 (KM12): 0.12 µM (active)
- GI50 (LOX IMVI): 0.676 µM (active)
- GI50 (M14): 2.09 µM (inactive)
- GI50 (MCF7): 0.358 µM (active)
- GI50 (MDA-MB-231): 3.66 µM (inactive)
- GI50 (MDA-MB-435): 0.174 µM (active)
- GI50 (MDA-N): 0.234 µM (active)
- GI50 (MOLT-4): 1.91 µM (inactive)
- GI50 (Malme-3M): 0.369 µM (active)
- GI50 (NCI-H226): 5.33 µM (inactive)
- GI50 (NCI-H23): 3.18 µM (inactive)
- GI50 (NCI-H460): 1.71 µM (inactive)
- GI50 (NCI-H522): 1.39 µM (inactive)
- GI50 (NCI/ADR-RES): 0.885 µM (active)
- GI50 (OVCAR-3): 0.431 µM (active)
- GI50 (OVCAR-4): > 10 µM (inactive)
- GI50 (OVCAR-5): > 8.71 µM (inactive)
- GI50 (OVCAR-8): 2.86 µM (inactive)
- GI50 (PC-3): 2.3 µM (inactive)
- GI50 (RPMI-8226): 2.82 µM (inactive)
- GI50 (RXF 393): 2.58 µM (inactive)
- GI50 (SF-268): 7.76 µM (inactive)
- GI50 (SF-295): 2.11 µM (inactive)
- GI50 (SF-539): 2.07 µM (inactive)
- GI50 (SK-MEL-28): 3.28 µM (inactive)
- GI50 (SK-MEL-2): 1.49 µM (inactive)
- GI50 (SK-MEL-5): 0.324 µM (active)
- GI50 (SK-OV-3): 4.33 µM (inactive)
- GI50 (SN12C): 6.98 µM (inactive)
- GI50 (SNB-19): 4.8 µM (inactive)
- GI50 (SNB-75): 2.41 µM (inactive)
- GI50 (SR): 0.379 µM (active)
- GI50 (SW-620): 0.935 µM (active)
- GI50 (T47D): > 2.12 µM (inactive)
- GI50 (TK-10): 3.42 µM (inactive)
- GI50 (U-251): 4.81 µM (inactive)
- GI50 (UACC-257): 5.38 µM (inactive)
- GI50 (UACC-62): 2.63 µM (inactive)
- GI50 (UO-31): 5.55 µM (inactive)

Structure (SMILES): Cc1ncc(CBr)c(CBr)c1O
- GI50 (786-0): > 100 µM (inactive)
- GI50 (A498): > 100 µM (inactive)
- GI50 (ACHN): > 100 µM (inactive)
- GI50 (CAKI-1): > 100 µM (inactive)
- GI50 (CCRF-CEM): 44.7 µM (inactive)
- GI50 (COLO 205): > 100 µM (inactive)
- GI50 (DLD-1): > 100 µM (inactive)
- GI50 (DMS-114): > 100 µM (inactive)
- GI50 (DMS-273): > 100 µM (inactive)
- GI50 (HCC 2998): > 100 µM (inactive)
- GI50 (HCT-116): > 100 µM (inactive)
- GI50 (HL-60): 60.8 µM (inactive)
- GI50 (HOP-62): > 100 µM (inactive)
- GI50 (HOP-92): > 100 µM (inactive)
- GI50 (IGROV-1): > 100 µM (inactive)
- GI50 (K562): > 100 µM (inactive)
- GI50 (LXFL 529): > 100 µM (inactive)
- GI50 (M14): > 100 µM (inactive)
- GI50 (M19-MEL): > 100 µM (inactive)
- GI50 (MOLT-4): > 100 µM (inactive)
- GI50 (Malme-3M): > 100 µM (inactive)
- GI50 (NCI-H226): > 100 µM (inactive)
- GI50 (NCI-H23): > 100 µM (inactive)
- GI50 (NCI-H522): 55.3 µM (inactive)
- GI50 (OVCAR-4): > 100 µM (inactive)
- GI50 (RPMI-8226): > 100 µM (inactive)
- GI50 (SF-268): > 100 µM (inactive)
- GI50 (SF-539): > 100 µM (inactive)
- GI50 (SK-MEL-28): > 100 µM (inactive)
- GI50 (SK-MEL-2): > 100 µM (inactive)
- GI50 (SK-OV-3): > 100 µM (inactive)
- GI50 (SN12C): > 100 µM (inactive)
- GI50 (SNB-75): > 100 µM (inactive)
- GI50 (SNB-78): > 100 µM (inactive)
- GI50 (SR): > 100 µM (inactive)
- GI50 (UACC-62): > 100 µM (inactive)
- GI50 (UO-31): 89.1 µM (inactive)
- GI50 (XF498): > 100 µM (inactive)
